From patent US7439052B2, “Method of making modified immunodeficiency virus particles” (Lipid Sciences, priority 2000, dated 2008)

How the values were obtained:
[1] = tested on: SIVmac239; experiment: Plasma viral loads in macaques chronically infected with SIVmac239; format: in vivo
From the text: (§1) A cohort of highly viremic macaques chronically infected for over two years with SIVmac239 was used as a chronic and pathogenic model of immunodeficiency virus infection. The animals were identified as RDg-7, RJo-6, RMi-7 and RSp-6. To test the effect on these animals of administration of a delipidated immunodeficiency virus composition comprising modified, partially delipidated immunodeficiency viral particles, also referred to as therapeutic vaccine compositions or therapeutic vaccines, autologous immunodeficiency virus was delipidated and administered to the experimental animals following a 30 day antiretroviral therapy (ART) with an antiviral drug PMPA. […] The animals were then subjected to lymph node targeted immunization at monthly intervals with 1, 1 and 10 μg of autologous delipidated SIV virus composition, obtained substantially as described elsewhere herein. Four weeks after the last boost, ART was discontinued and the animals were monitored for virological and immunological parameters.
The virological and immunological parameters were determined substantially as follows. Viral loads, schematically shown in FIGS. 13-18, were analyzed by SIV enzyme immunoassay (EIA) substantially as described elsewhere herein. […] Plates were read at a 450 nm wavelength using an ELISA reader. […]

[2] = tested on: SIVmac239; experiment: Absolute CD4 counts in SIV-infected macaques; format: in vivo; details: from pre-PMPA levels of <500/μl
From the text: as §1

C[C@H](Cn1cnc2c(N)ncnc21)OCP(=O)(O)O [PMPA]
viral loads after 30 day antiretroviral therapy ([1]; macaques chronically infected with SIVmac239): less than 80 copies/ml of viral RNA | plasma viral loads under treatment (below the limits of detection) ([1]; reduced from 10^4-10^6): < 10 viral RNA copies/ml | absolute CD4 counts [2]: increases in absolute CD4 counts
